In US20070093520A1, “Method of treatment of diarrhea-predominant irritable bowel syndrome in a subject” (priority 2005, published 2007):

Test system: diarrhea-predominant IBS subjects
Experiment: 3007 Study: open-label 52-week safety study, adverse events and withdrawals
Details: Placebo/Cilansetron 2 mg

Cc1nccn1C[C@H]1CCc2c(c3cccc4c3n2CCC4)C1=O [cilansetron, (R)-(−)-4,5,6,8,9,10-hexahydro-10-[(2-methyl-1H-imidazol-1-yl)methyl]-11H-pyrido-[3,2,1-jk]-carbazol-11-one]
10 (4%) n (%): TEAE: Rhinoviral Infections | TEAE: Urinary Tract Infection NOS
1 (<1%) n (%): TEAE: Protein Urine Present | TEAE: Pruritus Ani | TEAE: Rectal Disorder NOS | TEAE: Red Blood Cells Urine | TEAE: Renal Bruit | TEAE: Rheumatoid Arthritis | TEAE: Rheumatoid Arthritis Aggravated | TEAE: Rotator Cuff Syndrome | TEAE: Sinusitis Acute NOS | TEAE: Skin Infection NOS | TEAE: Somnolence | TEAE: Speech and Language Abnormalities | TEAE: Spinal Cord and Nerve Root Disorders NEC | TEAE: Spondylitic Myelopathy | TEAE: Stomach Discomfort | TEAE: Tinea Cruris | TEAE: Tinea Infections | TEAE: Tissue Enzyme Analyses NEC | TEAE: Tooth Abscess | TEAE: Tooth Infection | TEAE: Toothache | TEAE: Tremor | TEAE: Tremor (Excl Congenital) | TEAE: Trigger Finger | TEAE: Upper Limb Fractures and Dislocations | TEAE: Urine Bilirubin Increased | TEAE: Weight Decreased | TEAE: White Blood Cell Analyses | TEAE leading to permanent discontinuation: Back Pain (N=279) | TEAE leading to permanent discontinuation: Bladder Prolapse (N=279) | TEAE leading to permanent discontinuation: Chest Discomfort (N=279) | TEAE leading to permanent discontinuation: Chest Pain (N=279) | TEAE leading to permanent discontinuation: Chest Wall Pain (N=279) | TEAE leading to permanent discontinuation: Colitis Ischaemic (N=279) | TEAE leading to permanent discontinuation: Cough (N=279) | TEAE leading to permanent discontinuation: Depression (N=279) | TEAE leading to permanent discontinuation: Diarrhoea Aggravated (N=279) | TEAE leading to permanent discontinuation: Diarrhoea Haemorrhagic (N=279) | TEAE leading to permanent discontinuation: Dyspepsia (N=279) | TEAE leading to permanent discontinuation: Epigastric Discomfort (N=279) | TEAE leading to permanent discontinuation: Eye Disorders (N=279) | TEAE leading to permanent discontinuation: Faecal Impaction (N=279) | TEAE leading to permanent discontinuation: Faecal Incontinence (N=279) | TEAE leading to permanent discontinuation: Fatigue (N=279) | TEAE leading to permanent discontinuation: Fibroma NOS (N=279) | TEAE leading to permanent discontinuation: Gastrointestinal Motility Disorder NOS (N=279) | TEAE leading to permanent discontinuation: Haemorrhoidal Haemorrhage (N=279) | TEAE leading to permanent discontinuation: Hallucination NOS (N=279) | TEAE leading to permanent discontinuation: Hallucination, Auditory (N=279) | TEAE leading to permanent discontinuation: Lethargy (N=279) | TEAE leading to permanent discontinuation: Psychiatric Disorders (N=279) | TEAE leading to permanent discontinuation: Psychotic Disorder NOS (N=279) | TEAE leading to permanent discontinuation: Rash Macular (N=279) | TEAE leading to permanent discontinuation: Rash NOS (N=279) | TEAE leading to permanent discontinuation: Rectal Disorder NOS (N=279) | TEAE leading to permanent discontinuation: Rectal Tenesmus (N=279) | TEAE leading to permanent discontinuation: Renal and Urinary Disorders (N=279) | TEAE leading to permanent discontinuation: Respiratory, Thoracic and Mediastinal Disorders (N=279) | TEAE leading to permanent discontinuation: Stomach Discomfort (N=279) | TEAE leading to permanent discontinuation: Suicidal Ideation (N=279)
4 (1%) n (%): TEAE: Rectal Haemorrhage | TEAE: Triglyceride Analyses | TEAE leading to permanent discontinuation: General Disorders and Administration Site Conditions (N=279) | TEAE leading to permanent discontinuation: Nervous System Disorders (N=279)
9 (3%) n (%): TEAE: Vomiting NOS
19 (7%) n (%): TEAE: Upper Respiratory Tract Infections - Pathogen Class Unspecified
2 (<1%) n (%): TEAE: Rectal Tenesmus | TEAE: Rheumatoid Arthropathies | TEAE: Skin Structures and Soft Tissue Infections | TEAE: Sleep Apnoea Syndrome | TEAE: Sleep Apnoeas | TEAE: Tendonitis | TEAE: Urine Ketone Body Present | TEAE: Urine Leukocyte Esterase Positive | TEAE: Vascular Auscultatory Investigations | TEAE: Vascular Tests NEC (Incl Blood Pressure) | TEAE: Viral Infection NOS | TEAE leading to permanent discontinuation: Abdominal Distension (N=279) | TEAE leading to permanent discontinuation: Abdominal Pain Lower (N=279) | TEAE leading to permanent discontinuation: Diarrhoea NOS (N=279) | TEAE leading to permanent discontinuation: Dizziness (N=279) | TEAE leading to permanent discontinuation: Musculoskeletal and Connective Tissue Disorders (N=279) | TEAE leading to permanent discontinuation: Rectal Haemorrhage (N=279)
12 (4%) n (%): TEAE: Urinary Tract Infections
40 (14%) n (%): TEAE leading to permanent discontinuation: Gastrointestinal Disorders (N=279)
5 (2%) n (%): TEAE leading to permanent discontinuation: Flatulence (N=279)
217 (78%) n (%): TEAE: Total Number of Subjects with at Least One TEAE
3 (1%) n (%): TEAE: Renal Function Analyses | TEAE: Streptococcal Infections | TEAE: Tendon Disorders | TEAE leading to permanent discontinuation: Abdominal Pain Upper (N=279) | TEAE leading to permanent discontinuation: Headache NOS (N=279) | TEAE leading to permanent discontinuation: Neoplasms Benign, Malignant and Unspecified (Incl Cysts and Polyps) (N=279) | TEAE leading to permanent discontinuation: Skin and Subcutaneous Tissue Disorders (N=279)
6 (2%) n (%): TEAE: Urinalysis NEC | TEAE leading to permanent discontinuation: Abdominal Pain NOS (N=279)
21 (8%) n (%): TEAE leading to permanent discontinuation: Constipation (N=279)
13 (5%) n (%): TEAE: Sinusitis NOS
0 n (%): TEAE: Rectal Cramps | TEAE: Red Blood Cell Analyses | TEAE: Reproductive Organ and Breast Histopathology Procedures | TEAE: Respiratory Tract Infection NOS | TEAE: Rib Fracture | TEAE: Road Traffic Accident | TEAE: Seizures and Seizure Disorders NEC | TEAE: Sinus Headache | TEAE: Site Specific Injuries NEC | TEAE: Skin Fungal Infection NOS | TEAE: Soft Tissue Disorders NEC | TEAE: Spondyloarthropathies | TEAE: Spondylosis | TEAE: Staphylococcal Infection NOS | TEAE: Staphylococcal Infections | TEAE: Status Epilepticus | TEAE: Streptococcal Infection NOS | TEAE: Stress Fracture | TEAE: Temporomandibular Joint Disorder NOS | TEAE: Tension Headaches | TEAE: Thoracic Cage Fractures and Dislocations | TEAE: Tinea Pedis | TEAE: Tongue Coated | TEAE: Tongue Signs and Symptoms | TEAE: Tooth Disorder NOS | TEAE: Tooth Impacted | TEAE: Transient Global Amnesia | TEAE: Umbilical Hernia NOS | TEAE: Umbilical Hernias | TEAE: Urine Analysis Abnormal NOS | TEAE: Urobilin Urine Present | TEAE: Vasovagal Attack | TEAE: Weight Increased | TEAE: White Blood Cell Count Decreased | TEAE: White Blood Cells Urine Positive | TEAE leading to permanent discontinuation: Abdominal Pain Aggravated (N=279) | TEAE leading to permanent discontinuation: Alanine Aminotransferase Increased (N=279) | TEAE leading to permanent discontinuation: Angina Pectoris (N=279) | TEAE leading to permanent discontinuation: Appendicitis (N=279) | TEAE leading to permanent discontinuation: Asthma Aggravated (N=279) | TEAE leading to permanent discontinuation: Asthma NOS (N=279) | TEAE leading to permanent discontinuation: Blood Bilirubin Increased (N=279) | TEAE leading to permanent discontinuation: Blood Pressure Increased (N=279) | TEAE leading to permanent discontinuation: Blood Urine Present (N=279) | TEAE leading to permanent discontinuation: Bone Neoplasm Malignant (N=279) | TEAE leading to permanent discontinuation: Cardiac Disorders (N=279) | TEAE leading to permanent discontinuation: Dehydration (N=279) | TEAE leading to permanent discontinuation: Ear and Labyrinth Disorders (N=279) | TEAE leading to permanent discontinuation: Eructation (N=279) | TEAE leading to permanent discontinuation: Faecal Abnormality NOS (N=279) | TEAE leading to permanent discontinuation: Faeces Hard (N=279) | TEAE leading to permanent discontinuation: Gastric Irritation (N=279) | TEAE leading to permanent discontinuation: Headache NOS Aggravated (N=279) | TEAE leading to permanent discontinuation: Heart Rate Increased (N=279) | TEAE leading to permanent discontinuation: Hepatobiliary Disorders (N=279) | TEAE leading to permanent discontinuation: Hepatosplenomegaly NOS (N=279) | TEAE leading to permanent discontinuation: Hiatus Hernia (N=279) | TEAE leading to permanent discontinuation: Investigations (N=279) | TEAE leading to permanent discontinuation: Irritable Bowel Syndrome Aggravated (N=279) | TEAE leading to permanent discontinuation: Metabolism and Nutrition Disorders (N=279) | TEAE leading to permanent discontinuation: Migraine NOS (N=279) | TEAE leading to permanent discontinuation: Muscle Cramps (N=279) | TEAE leading to permanent discontinuation: Nausea (N=279) | TEAE leading to permanent discontinuation: Pregnancy, Puerperium and Perinatal Conditions (N=279) | TEAE leading to permanent discontinuation: Pruritus NOS (N=279) | TEAE leading to permanent discontinuation: Somnolence (N=279)
8 (3%) n (%): TEAE: Skeletal and Cardiac Muscle Analyses | TEAE: Upper Respiratory Tract Infection NOS | TEAE: Viral Infections NEC
